Assay: xn = mol fraction of the nth substance listed
Conditions: 100 kPa, Liquid; for viscosity: Capillary tube (Ostwald / Ubbelohde) method; for mass density: Vibrating tube method

CCC(C)CO (stereo not given) [2-methyl-1-butanol] + CCCC(C)O
Conditions	mass density [kg/m3]	viscosity [mPa·s]
288.15 K, x2 = 0	823.35	6.439
288.15 K, x2 = 0.1	822.37	6.154
288.15 K, x2 = 0.2	821.39	5.978
288.15 K, x2 = 0.301	820.41	5.83
288.15 K, x2 = 0.4	819.44	5.687
288.15 K, x2 = 0.5	818.45	5.556
288.15 K, x2 = 0.6	817.47	5.435
288.15 K, x2 = 0.7	816.47	5.323
288.15 K, x2 = 0.8	815.45	5.232
288.15 K, x2 = 0.9	814.4	5.154
293.15 K, x2 = 0	819.64	5.3
293.15 K, x2 = 0.1	818.65	5.034
293.15 K, x2 = 0.2	817.65	4.881
293.15 K, x2 = 0.301	816.65	4.762
293.15 K, x2 = 0.4	815.65	4.649
293.15 K, x2 = 0.5	814.64	4.548
293.15 K, x2 = 0.6	813.63	4.459
293.15 K, x2 = 0.7	812.6	4.377
293.15 K, x2 = 0.8	811.57	4.314
293.15 K, x2 = 0.9	810.5	4.251
298.15 K, x2 = 0	815.85	4.501
298.15 K, x2 = 0.1	814.84	4.249
298.15 K, x2 = 0.2	813.83	4.106
298.15 K, x2 = 0.301	812.81	3.99
298.15 K, x2 = 0.4	811.79	3.882
298.15 K, x2 = 0.5	810.75	3.787
298.15 K, x2 = 0.6	809.72	3.703
298.15 K, x2 = 0.7	808.68	3.625
298.15 K, x2 = 0.8	807.63	3.564
298.15 K, x2 = 0.9	806.54	3.496
303.15 K, x2 = 0	812.12	3.825
303.15 K, x2 = 0.1	811.09	3.585
303.15 K, x2 = 0.2	810.04	3.46
303.15 K, x2 = 0.301	808.98	3.355
303.15 K, x2 = 0.4	807.92	3.253
303.15 K, x2 = 0.5	806.85	3.163
303.15 K, x2 = 0.6	805.78	3.093
303.15 K, x2 = 0.7	804.7	3.028
303.15 K, x2 = 0.8	803.62	2.973
303.15 K, x2 = 0.9	802.49	2.91
308.15 K, x2 = 0	808.29	3.265
308.15 K, x2 = 0.1	807.23	3.047
308.15 K, x2 = 0.2	806.15	2.928
308.15 K, x2 = 0.301	805.06	2.83
308.15 K, x2 = 0.4	803.97	2.735
308.15 K, x2 = 0.5	802.86	2.653
308.15 K, x2 = 0.6	801.76	2.589
308.15 K, x2 = 0.7	800.64	2.53
308.15 K, x2 = 0.8	799.52	2.482
308.15 K, x2 = 0.9	798.36	2.422
313.15 K, x2 = 0	804.41	2.783
313.15 K, x2 = 0.1	803.33	2.586
313.15 K, x2 = 0.2	802.22	2.481
313.15 K, x2 = 0.301	801.08	2.398
313.15 K, x2 = 0.4	799.95	2.317
313.15 K, x2 = 0.5	798.81	2.248
313.15 K, x2 = 0.6	797.67	2.196
313.15 K, x2 = 0.7	796.51	2.151
313.15 K, x2 = 0.8	795.35	2.112
313.15 K, x2 = 0.9	794.14	2.062
318.15 K, x2 = 0	800.47	2.379
318.15 K, x2 = 0.1	799.36	2.199
318.15 K, x2 = 0.2	798.21	2.11
318.15 K, x2 = 0.301	797.03	2.037
318.15 K, x2 = 0.4	795.86	1.968
318.15 K, x2 = 0.5	794.68	1.91
318.15 K, x2 = 0.6	793.49	1.869
318.15 K, x2 = 0.7	792.29	1.835
318.15 K, x2 = 0.8	791.09	1.805
318.15 K, x2 = 0.9	789.84	1.764
323.15 K, x2 = 0	796.47	2.06
323.15 K, x2 = 0.1	795.33	1.898
323.15 K, x2 = 0.2	794.13	1.817
323.15 K, x2 = 0.301	792.91	1.754
323.15 K, x2 = 0.4	791.7	1.696
323.15 K, x2 = 0.5	790.47	1.649
323.15 K, x2 = 0.6	789.24	1.618
323.15 K, x2 = 0.7	788	1.59
323.15 K, x2 = 0.8	786.75	1.56
323.15 K, x2 = 0.9	785.47	1.525
328.15 K, x2 = 0	792.41	1.787
328.15 K, x2 = 0.1	791.24	1.649
328.15 K, x2 = 0.2	789.99	1.578
328.15 K, x2 = 0.301	788.72	1.525
328.15 K, x2 = 0.4	787.46	1.476
328.15 K, x2 = 0.5	786.19	1.44
328.15 K, x2 = 0.6	784.91	1.418
328.15 K, x2 = 0.7	783.62	1.396
328.15 K, x2 = 0.8	782.33	1.371
328.15 K, x2 = 0.9	781	1.346

CCC(C)CO (stereo not given) [2-methyl-1-butanol] + CCCCCO
Conditions	mass density [kg/m3]	viscosity [mPa·s]
288.15 K, x2 = 0	823.35	6.439
288.15 K, x2 = 0.1	822.86	6.245
288.15 K, x2 = 0.2	822.37	6.036
288.15 K, x2 = 0.3	821.88	5.819
288.15 K, x2 = 0.399	821.4	5.595
288.15 K, x2 = 0.5	820.92	5.361
288.15 K, x2 = 0.6	820.44	5.128
288.15 K, x2 = 0.699	819.96	4.916
288.15 K, x2 = 0.799	819.5	4.741
288.15 K, x2 = 0.899	819.03	4.697
293.15 K, x2 = 0	819.64	5.3
293.15 K, x2 = 0.1	819.15	5.146
293.15 K, x2 = 0.2	818.66	4.998
293.15 K, x2 = 0.3	818.19	4.837
293.15 K, x2 = 0.399	817.71	4.677
293.15 K, x2 = 0.5	817.24	4.516
293.15 K, x2 = 0.6	816.77	4.362
293.15 K, x2 = 0.699	816.3	4.196
293.15 K, x2 = 0.799	815.84	4.062
293.15 K, x2 = 0.899	815.38	4.046
298.15 K, x2 = 0	815.85	4.501
298.15 K, x2 = 0.1	815.37	4.383
298.15 K, x2 = 0.2	814.9	4.255
298.15 K, x2 = 0.3	814.43	4.129
298.15 K, x2 = 0.399	813.97	3.988
298.15 K, x2 = 0.5	813.51	3.848
298.15 K, x2 = 0.6	813.05	3.72
298.15 K, x2 = 0.699	812.6	3.604
298.15 K, x2 = 0.799	812.15	3.507
298.15 K, x2 = 0.899	811.7	3.489
303.15 K, x2 = 0	812.12	3.825
303.15 K, x2 = 0.1	811.64	3.725
303.15 K, x2 = 0.2	811.17	3.63
303.15 K, x2 = 0.3	810.71	3.518
303.15 K, x2 = 0.399	810.26	3.402
303.15 K, x2 = 0.5	809.8	3.287
303.15 K, x2 = 0.6	809.34	3.197
303.15 K, x2 = 0.699	808.89	3.114
303.15 K, x2 = 0.799	808.45	3.051
303.15 K, x2 = 0.899	808	3.018
308.15 K, x2 = 0	808.29	3.265
308.15 K, x2 = 0.1	807.82	3.176
308.15 K, x2 = 0.2	807.36	3.099
308.15 K, x2 = 0.3	806.92	3.007
308.15 K, x2 = 0.399	806.47	2.921
308.15 K, x2 = 0.5	806.03	2.831
308.15 K, x2 = 0.6	805.58	2.765
308.15 K, x2 = 0.699	805.15	2.701
308.15 K, x2 = 0.799	804.71	2.66
308.15 K, x2 = 0.899	804.28	2.648
313.15 K, x2 = 0	804.41	2.783
313.15 K, x2 = 0.1	803.95	2.717
313.15 K, x2 = 0.2	803.51	2.657
313.15 K, x2 = 0.3	803.07	2.59
313.15 K, x2 = 0.399	802.64	2.528
313.15 K, x2 = 0.5	802.21	2.468
313.15 K, x2 = 0.6	801.78	2.419
313.15 K, x2 = 0.699	801.35	2.365
313.15 K, x2 = 0.799	800.93	2.327
313.15 K, x2 = 0.899	800.51	2.323
318.15 K, x2 = 0	800.47	2.379
318.15 K, x2 = 0.1	800.02	2.329
318.15 K, x2 = 0.2	799.6	2.281
318.15 K, x2 = 0.3	799.18	2.232
318.15 K, x2 = 0.399	798.76	2.187
318.15 K, x2 = 0.5	798.34	2.141
318.15 K, x2 = 0.6	797.93	2.103
318.15 K, x2 = 0.699	797.52	2.07
318.15 K, x2 = 0.799	797.11	2.041
318.15 K, x2 = 0.899	796.7	2.028
323.15 K, x2 = 0	796.47	2.06
323.15 K, x2 = 0.1	796.04	2.016
323.15 K, x2 = 0.2	795.63	1.98
323.15 K, x2 = 0.3	795.22	1.942
323.15 K, x2 = 0.399	794.82	1.908
323.15 K, x2 = 0.5	794.42	1.877
323.15 K, x2 = 0.6	794.02	1.85
323.15 K, x2 = 0.699	793.63	1.823
323.15 K, x2 = 0.799	793.24	1.801
323.15 K, x2 = 0.899	792.85	1.791
328.15 K, x2 = 0	792.41	1.787
328.15 K, x2 = 0.1	792	1.753
328.15 K, x2 = 0.2	791.6	1.725
328.15 K, x2 = 0.3	791.22	1.697
328.15 K, x2 = 0.399	790.84	1.669
328.15 K, x2 = 0.5	790.46	1.645
328.15 K, x2 = 0.6	790.08	1.624
328.15 K, x2 = 0.699	789.7	1.609
328.15 K, x2 = 0.799	789.33	1.598
328.15 K, x2 = 0.899	788.96	1.594

From the NIST ThermoML archive (doi:10.1021/acs.jced.8b00979)
